From patent US20110178396A1, “Nicotinamide Derivatives” (CRC FOR BIOMEDICAL IMAGING DEVELOPMENT LTD., priority 2008, published 2011)

Test system: A375 human amelanotic melanoma tumour
Test: Biodistribution in A375 melanoma tumour bearing mice
Type: in vivo, BALB/c nude mice
Details: for Organ distribution Intestine / Organ distribution Liver / Organ distribution Spleen / Organ distribution Stomach / Organ distribution Thyroid / Organ distribution Tumour: mean ± S.D.
Protocol: Animal experiments were performed in compliance with the NHMRC Australian Code of Practice for the care and use of animals for scientific purposes. Female C57BL/6J black and BALB/c nude albino mice of 5 weeks age were obtained from the Animal Resources Centre, Western Australia. B16F0 murine melanoma cells were originally obtained from European Collection of Cell Cultures (UK) and A375 human amelanotic melanoma cells were originally obtained from American Type Culture Collection (USA). Before transplantation, B16F0 and A375 melanoma cells were maintained as a monolayer in RPMI culture medium supplemented with 10% foetal calf serum and antibiotics and passaged with trypsinisation. Early passages were frozen and stored in liquid nitrogen. Cells were passaged to P=10 and then discarded. Frozen aliquots were grown in a monolayer culture to between 80-95% confluence and for transplantation were trypsinised and washed with Ca^2+ and Mg^2+ free phosphate buffered saline (PBS). For inoculation, B16F0 melanoma cells were resuspended in Ca^2+ and Mg^2+ free PBS at 3 or 5×10^6 viable cells per ml and 0.1 ml was subcutaneously injected at the left flank of 6-7 weeks old C57BL/6J mice. Eleven days later, tumours could be palpated in >98% of inoculated animals. A375 human melanoma cells were resuspended at 1×10^7 viablecells per ml and 0.1 ml was injected subcutaneously at the left flank of 6 weeks old BALB/c nude mice and 25-26 days later tumours could be palpated with ˜60% of inoculated animals developing tumours.
Eleven days (B16F0 melanoma) and 25 days (A375 human melanoma) after tumour transplantation, the [^18F]nicotinamides (0.5-1.5 MBq, 100 μl) and [^123I]nicotinamide (0.37-0.74 MBq, 100 μl) derivatives were injected intravenously via the tail vein into mice (15-18 g). Time points of 1, 3, 6, 24, 48, 72 h after injection were chosen for determining the distribution of each compound in various organs and tissues for the iodine-123 labelled compounds and between 15 min and 6 hours (e.g. 15 min, 30 min, 1 h, 2 h, 4 h or 6 h) were chosen for the ^18F-labelled compounds. At defined times post injection, groups of mice (n=5) were weighed, sacrificed by CO2 administration followed by cervical dislocation and dissected. Selected organs were weighed and their radioactivity measured with a γ-counter. The remaining activity in the carcass was also determined in order to obtain the total activity in the mouse at defined time points. The fraction of injected activity (% ID) in the organ was calculated by comparison with suitable dilutions of the injected dose. Then, the radioactivity concentration in the organ (% ID/g) was found by dividing the % ID for each organ by the weight of the organ.

[1] = A375 tumour bearing mice, 30 min
[2] = A375 tumour, BALB/c nude mice, 1 h, n = 5
[3] = A375 tumour, BALB/c nude mice, 1 h, mean ± SD, n = 5
[4] = A375 tumour, BALB/c nude mice, 6 h, n = 5
[5] = A375 tumour, BALB/c nude mice, 6 h, mean ± SD, n = 5
[6] = A375 tumour, BALB/c nude mice, 24 h, n = 5
[7] = A375 tumour, BALB/c nude mice, 24 h, mean ± SD, n = 5

CCN(CC)CCNC(=O)c1ccc(F)nc1 [[^18F]MEL2, 6-Fluoro-N-[2-(diethylamino)ethyl]nicotinamide]
uptake in tissue (tumour and eyes) (A375 amelanotic melanoma tumour bearing mice, three hour period): low uptake
uptake BLADDER [1]: 8.937 % ID/g
uptake BLOOD [1]: 1.323 % ID/g
uptake BONE [1]: 1.912 % ID/g
uptake BRAIN [1]: 1.831 % ID/g
uptake EYES [1]: 1.704 % ID/g
uptake GIT [1]: 3.432 % ID/g
uptake HEART [1]: 1.898 % ID/g
uptake KIDNEY [1]: 7.103 % ID/g
uptake LIVER [1]: 6.820 % ID/g
uptake LUNGS [1]: 2.836 % ID/g
uptake MUSCLE [1]: 2.125 % ID/g
uptake SKIN [1]: 2.521 % ID/g
uptake SPLEEN [1]: 4.093 % ID/g
uptake STOMACH [1]: 3.795 % ID/g
uptake THYROID [1]: 2.745 % ID/g
uptake TUMOUR [1]: 2.633 % ID/g
uptake URINE [1]: 609.148 % ID/g
uptake BLADDER (A375 tumour bearing mice, 1 h): 3.717 % ID/g
uptake BLOOD (A375 tumour bearing mice, 1 h): 0.480 % ID/g
uptake BONE (A375 tumour bearing mice, 1 h): 0.863 % ID/g
uptake BRAIN (A375 tumour bearing mice, 1 h): 0.822 % ID/g
uptake EYES (A375 tumour bearing mice, 1 h): 0.626 % ID/g
uptake GIT (A375 tumour bearing mice, 1 h): 1.564 % ID/g
uptake HEART (A375 tumour bearing mice, 1 h): 0.604 % ID/g
uptake KIDNEY (A375 tumour bearing mice, 1 h): 2.032 % ID/g
uptake LIVER (A375 tumour bearing mice, 1 h): 2.670 % ID/g
uptake LUNGS (A375 tumour bearing mice, 1 h): 0.939 % ID/g
uptake MUSCLE (A375 tumour bearing mice, 1 h): 0.865 % ID/g
uptake SKIN (A375 tumour bearing mice, 1 h): 1.265 % ID/g
uptake SPLEEN (A375 tumour bearing mice, 1 h): 1.351 % ID/g
uptake STOMACH (A375 tumour bearing mice, 1 h): 1.899 % ID/g
uptake THYROID (A375 tumour bearing mice, 1 h): 1.162 % ID/g
uptake TUMOUR (A375 tumour bearing mice, 1 h): 0.920 % ID/g
uptake URINE (A375 tumour bearing mice, 1 h): 185.427 % ID/g
uptake BLADDER (A375 tumour bearing mice, 2 h): 4.835 % ID/g
uptake BLOOD (A375 tumour bearing mice, 2 h): 0.171 % ID/g
uptake BONE (A375 tumour bearing mice, 2 h): 0.548 % ID/g
uptake BRAIN (A375 tumour bearing mice, 2 h): 0.224 % ID/g
uptake EYES (A375 tumour bearing mice, 2 h): 0.238 % ID/g
uptake GIT (A375 tumour bearing mice, 2 h): 0.580 % ID/g
uptake HEART (A375 tumour bearing mice, 2 h): 0.205 % ID/g
uptake KIDNEY (A375 tumour bearing mice, 2 h): 0.650 % ID/g
uptake LIVER (A375 tumour bearing mice, 2 h): 0.985 % ID/g
uptake LUNGS (A375 tumour bearing mice, 2 h): 0.324 % ID/g
uptake MUSCLE (A375 tumour bearing mice, 2 h): 0.280 % ID/g
uptake SKIN (A375 tumour bearing mice, 2 h): 0.290 % ID/g
uptake SPLEEN (A375 tumour bearing mice, 2 h): 0.434 % ID/g
uptake STOMACH (A375 tumour bearing mice, 2 h): 0.748 % ID/g
uptake THYROID (A375 tumour bearing mice, 2 h): 0.356 % ID/g
uptake TUMOUR (A375 tumour bearing mice, 2 h): 0.254 % ID/g
uptake URINE (A375 tumour bearing mice, 2 h): 97.912 % ID/g
uptake BLADDER (A375 tumour bearing mice, 3 h): 0.360 % ID/g
uptake BLOOD (A375 tumour bearing mice, 3 h): 0.054 % ID/g
uptake BONE (A375 tumour bearing mice, 3 h): 0.443 % ID/g
uptake BRAIN (A375 tumour bearing mice, 3 h): 0.073 % ID/g
uptake EYES (A375 tumour bearing mice, 3 h): 0.110 % ID/g
uptake GIT (A375 tumour bearing mice, 3 h): 0.227 % ID/g
uptake HEART (A375 tumour bearing mice, 3 h): 0.045 % ID/g
uptake KIDNEY (A375 tumour bearing mice, 3 h): 0.197 % ID/g
uptake LIVER (A375 tumour bearing mice, 3 h): 0.323 % ID/g
uptake LUNGS (A375 tumour bearing mice, 3 h): 0.099 % ID/g
uptake MUSCLE (A375 tumour bearing mice, 3 h): 0.108 % ID/g
uptake SKIN (A375 tumour bearing mice, 3 h): 0.169 % ID/g
uptake SPLEEN (A375 tumour bearing mice, 3 h): 0.103 % ID/g
uptake STOMACH (A375 tumour bearing mice, 3 h): 0.302 % ID/g
uptake THYROID (A375 tumour bearing mice, 3 h): 0.128 % ID/g
uptake TUMOUR (A375 tumour bearing mice, 3 h): 0.096 % ID/g
uptake URINE (A375 tumour bearing mice, 3 h): 37.842 % ID/g

CCN(CC)CCNC(=O)c1cncc(I)c1 [[^123I]11, N-(2-(diethylamino)ethyl)-5-iodonicotinamide]
tumour standardized uptake value (SUVt) (A375 tumour, BALB/c nude mice, 1 h): 0.7 ± 0.1
Organ distribution Intestine [2]: 14 ± 2 % ID/organ
Organ distribution Liver [2]: 2.3 ± 0.2 % ID/organ
Organ distribution Spleen [2]: 0.16 ± 0.01 % ID/organ
Organ distribution Stomach [2]: 1.6 ± 0.2 % ID/organ
Organ distribution Thyroid [2]: 0.40 ± 0.07 % ID/organ
Organ distribution Tumour [2]: 0.40 ± 0.16 % ID/organ
Uptake Lung [3]: 1.56 ± 0.2 % ID/g
uptake BLOOD [3]: 1.4 ± 0.2 % ID/g
uptake BRAIN [3]: 0.14 ± 0.02 % ID/g
uptake HEART [3]: 0.8 ± 0.1 % ID/g
uptake KIDNEY [3]: 1.9 ± 0.3 % ID/g
uptake LIVER [3]: 2.2 ± 0.4 % ID/g
uptake TUMOUR [3]: 1.2 ± 0.2 % ID/g
tumour standardized uptake value (SUVt) (A375 tumour, BALB/c nude mice, 6 h): 0.9 ± 0.2
Organ distribution Intestine [4]: 2 ± 1 % ID/organ
Organ distribution Liver [4]: 0.7 ± 0.2 % ID/organ
Organ distribution Spleen [4]: 0.03 ± 0.01 % ID/organ
Organ distribution Stomach [4]: 0.4 ± 0.1 % ID/organ
Organ distribution Thyroid [4]: 1.0 ± 0.5 % ID/organ
Organ distribution Tumour [4]: 0.13 ± 0.06 % ID/organ
Uptake Lung [5]: 0.4 ± 0.2 % ID/g
uptake BLOOD [5]: 0.5 ± 0.2 % ID/g
uptake BRAIN [5]: 0.03 ± 0.01 % ID/g
uptake HEART [5]: 0.18 ± 0.07 % ID/g
uptake KIDNEY [5]: 0.47 ± 0.17 % ID/g
uptake LIVER [5]: 0.7 ± 0.3 % ID/g
uptake TUMOUR [5]: 0.4 ± 0.1 % ID/g
tumour standardized uptake value (SUVt) (A375 tumour, BALB/c nude mice, 24 h): 0.3 ± 0.1
Organ distribution Intestine [6]: 0.04 ± 0.01 % ID/organ
Organ distribution Liver [6]: 0.09 ± 0.02 % ID/organ
Organ distribution Spleen [6]: 0.002 % ID/organ
Organ distribution Stomach [6]: 0.01 ± 0.00 % ID/organ
Organ distribution Thyroid [6]: 1.4 ± 0.8 % ID/organ
Organ distribution Tumour [6]: 0.001 % ID/organ
Uptake Lung [7]: 0.015 ± 0.004 % ID/g
uptake BLOOD [7]: 0.013 ± 0.002 % ID/g
uptake BRAIN [7]: 0.002 ± 0.001 % ID/g
uptake HEART [7]: 0.012 ± 0.003 % ID/g
uptake KIDNEY [7]: 0.013 ± 0.002 % ID/g
uptake LIVER [7]: 0.08 ± 0.02 % ID/g
uptake TUMOUR [7]: 0.007 ± 0.002 % ID/g
